Assay results taken from patent US10278965B2, “Method of detecting cancer stem cell, method of screening cancer stem cell, and method of inhibiting cancer stem cell” (CANON KABUSHIKI KAISHA, priority 2012, dated 2019).

Assays:
[1] = tested on: K562-KOr human chronic myelocytic leukemia cells, ALDH (−) fraction, transplanted to zebra young fish; assay: Inhibitory action in cancer cells transplanted animal, ALDH (−) fraction; assay type: in vivo; conditions: 0.5 μm in breeding water added 24 hours after transplantation, fluorescent intensity
Text: (§1) From cell strain K562-KOr, which is a strain of human chronic myelocytic leukemia cells having fluorescent protein Kusabira-Orange constantly expressed, a fraction (ALDH (+)) containing 80% or more of cancer stem cells was extracted by use of a cancer stem cell marker, ALDEFLUOR reagent (manufactured by VERITAS Corporation) and FACSAria flow cytometry (manufactured by Nippon Becton, Dickinson and Company). The ALDH (+) fraction and a ALDH (−) fraction of general cancer cells were transplanted separately to zebra young fish (MieKomachi lineage, 2 days after fertilization) and the fish were raised in a 32° C. environment. Furthermore, 24 hours after transplantation, Compound (16) was added to breeding water so as to obtain a final concentration of […] and fish were raised for two days in a 32° C. environment.
(§2) Cells transplanted to the zebra young fish were observed under MZ16F fluorescent stereoscopic microscope (manufactured by Leica Microsystems) and a fluorescent image of the cells after 24 hours was photographed and then fluorescent intensity was quantified.
As a reference, the fluorescent intensity of cells, which were cultured in the same operation method as above in a medium containing a 0.1% DMSO solution in place of Compound (16), was used. […]

[2] = Measurement of fluorescent property of compound; assay type: physicochemical; conditions: 5 μM DMSO solution
Procedure: The excitation wavelength and fluorescence wavelength of the compound were measured by a FL4500 spectrofluorometric measuring machine manufactured by Hitachi High-Technologies Corporation.

[3] = tested on: Human chronic myelocytic leukemia cells, K562, ALDH (+) fraction (cancer stem cells); assay: Cancer stem-cell selective inhibitory action against chronic myelocytic leukemia cells, ALDH (+) fraction; assay type: cell-based; conditions: 24 hours
[4] = tested on: Human pancreas cancer cells, KLM-1; assay: Cancer cell inhibitory (growth suppressive) action against pancreatic cancer cells, CellTiter-Glo viable cell count; conditions: KLM-1, 10 μg/mL, 24 hours
Procedure: Human pancreas cancer cells, KLM-1, were pre-cultured in RPMI1640 medium containing 10% FBS at 37° C. in a 5% CO2 ambient. Thereafter, 4,000 cells were seeded per well of a 96-well plate and further cultured for 24 hours. […] The cultured cells were analyzed for viable cell count according to CellTiter-Glo Luminescent Cell Viability Assay (manufactured by Promega KK.).
Evaluation of cancer cell inhibition against the pancreatic cancer cells (KLM-1) (growth suppression) was made based on the following criteria. Note that the growth rate used in Examples refers to the rate (expressed by percentage) of viable cell count after culture relative to the number of cells at the initiation of cell culture.

K562 ALDH (−) cells = assay: Cancer stem-cell selective staining, ALDH (−) cells; assay type: cell-based, Human; conditions: cells of Experimental Examples 39, 42 and 45 (1 μg/ml, cultured for 24 hours), fluorescent microscope
Procedure: (§3) The cells cultured for 24 hours in each of Experimental Examples 39, 42 and 45 were subjected to nuclear staining with Hoechest33342 (manufactured by Dojindo Laboratories) and a fluorescent image observed under AXIOVERT200M inverted fluorescent microscope (manufactured by Carl Zeiss) was photographed.

K562 ALDH (+) cells = assay: Cancer stem-cell selective staining, ALDH (+) cells; assay type: cell-based, Human; conditions: cells of Experimental Examples 39, 42 and 45 (1 μg/ml, cultured for 24 hours), fluorescent microscope
Procedure: as §3

[5] = tested on: K562-KOr human chronic myelocytic leukemia cells, ALDH (+) fraction, transplanted to zebra young fish; assay: Inhibitory action in cancer stem cells transplanted animal, ALDH (+) fraction; assay type: in vivo
Text: as §1, §2
As a reference, the fluorescent intensity of cells, which were cultured in the same operation method as above in a medium containing a 0.1% DMSO solution in place of Compound (16), was used.
The numerical value of fluorescent intensity was obtained from a fluorescent image taken in the same manner as in Experimental Example 74 except that Compound (16) of Experimental Example 74 was changed to Imatinib.
. The inhibition rate herein was obtained according to the expression: 100×(1−F1/F0), where the fluorescent intensity of cells when a test substance was added is represented by F1, and the fluorescent intensity of cells when a reference substance (DMSO) was added is represented by F0.

[6] = tested on: Prostatic cancer cells, PC-3; assay: Cancer cell inhibitory (growth suppressive) action against prostatic cancer cells, CellTiter-Glo viable cell count; assay type: cell-based; conditions: PC-3, 10 μg/mL, 24 hours

CCCCCN1/C(=C\C=C\c2oc3ccccc3[n+]2CCCCC)Oc2ccccc21 [Compound 16]
ALDH(−) inhibition rate 100×(1−F1/F0) [1]: 82.0 | Excitation wavelength λex [2]: 474 nm | Fluorescence wavelength λem [2]: 509 nm | ALDH(+) Superiority evaluation ([3]; K562, 0.05 μg/ml): B (The value of the growth rate of ALDH (+)/the growth rate of ALDH (−) is 0.8 or more and less than 0.95) | ALDH(+)/ALDH(−) ([3]; K562, 0.05 μg/ml): 0.87 | ALDH(+) Superiority evaluation ([3]; K562, 0.5 μg/ml): A (The value of the growth rate of ALDH (+)/the growth rate of ALDH (−) is less than 0.8) | ALDH(+)/ALDH(−) ([3]; K562, 0.5 μg/ml): 0.70 | ALDH(+) Superiority evaluation ([3]; K562, 1 μg/ml): A (The value of the growth rate of ALDH (+)/the growth rate of ALDH (−) is less than 0.8) | ALDH(+)/ALDH(−) ([3]; K562, 1 μg/ml): 0.47 | Cancer cell growth rate (%) [4]: 2.0% | Evaluation (cancer cell growth rate) [4]: A (Cancer cell growth rate is less than 20%) | ratio of ALDH (−) cells stained (K562 ALDH (−) cells): 18.6% | ratio of ALDH (+) cells stained (K562 ALDH (+) cells): 99.5% | Growth suppression rate (ALDH(+) versus ALDH(−)) ([5]; zebra young fish transplanted with K562-KOr fractions): ALDH(+) is high | ALDH(+) inhibition rate 100×(1−F1/F0) ([5]; zebra young fish, 0.5 μm in breeding water added 24 hours after transplantation, fluorescent intensity): 95.0 | Cancer cell growth rate (%) [6]: 8.4% | Evaluation (cancer cell growth rate) [6]: A (Cancer cell growth rate is less than 20%)
